# Values quoted from earlier work in patent publication US20110088590A1, “METHOD FOR TREATING WOOD” (priority 2005, published 2011).
# Test system: honey bees and other beneficial insects, fish, aquatic insects, crayfish, and shrimp
# Conditions: for many species
structure (smiles),measurement,value
CC1(C)C(C=C(Cl)Cl)C1C(=O)OCc1cccc(Oc2ccccc2)c1 (stereo not shown) [Permethrin],lethal concentration,less than one
